Source: ChEMBL document CHEMBL1153145, “Novel lead for potent inhibitors of breast cancer resistance protein (BCRP)” (Bioorg Med Chem Lett, 2010)

Key:
[1] = biological target: T1, Broad substrate specificity ATP-binding cassette transporter ABCG2 (Homo sapiens, UniProt Q9UNQ0); experiment: Inhibition of BCRP expressed in MDCK cells by pheophorbide A assay; type: cell-based
T1 sequence (Q9UNQ0 whole entry): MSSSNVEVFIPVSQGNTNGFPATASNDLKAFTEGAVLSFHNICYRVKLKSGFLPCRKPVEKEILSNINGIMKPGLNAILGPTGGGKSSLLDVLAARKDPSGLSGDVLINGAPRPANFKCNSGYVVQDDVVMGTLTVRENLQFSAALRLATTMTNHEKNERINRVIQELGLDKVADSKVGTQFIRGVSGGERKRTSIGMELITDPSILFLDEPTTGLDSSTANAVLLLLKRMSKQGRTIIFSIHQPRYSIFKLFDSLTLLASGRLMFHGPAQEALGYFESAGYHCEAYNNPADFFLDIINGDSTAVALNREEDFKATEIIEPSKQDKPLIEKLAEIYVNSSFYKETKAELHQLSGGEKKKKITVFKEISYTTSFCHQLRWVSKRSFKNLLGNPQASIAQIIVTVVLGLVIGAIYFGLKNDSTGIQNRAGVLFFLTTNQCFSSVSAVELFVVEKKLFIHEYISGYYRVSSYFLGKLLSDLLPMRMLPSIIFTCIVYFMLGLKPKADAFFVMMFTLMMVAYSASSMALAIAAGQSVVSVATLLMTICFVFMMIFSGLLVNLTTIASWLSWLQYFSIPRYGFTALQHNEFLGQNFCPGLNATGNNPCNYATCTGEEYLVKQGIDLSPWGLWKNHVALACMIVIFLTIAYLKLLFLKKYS

[2] = biological target: T1, Broad substrate specificity ATP-binding cassette transporter ABCG2; experiment: Inhibition of BCRP expressed in MCF7 MX cells by Hoechst 33342 staining; type: cell-based
[3] = biological target: Multidrug resistance-associated protein 1 (Homo sapiens, UniProt P33527); experiment: Inhibition of MRP1 assessed as calcein AM accumulation by fluorescence assay
Multidrug resistance-associated protein 1, sequence (P33527 whole entry): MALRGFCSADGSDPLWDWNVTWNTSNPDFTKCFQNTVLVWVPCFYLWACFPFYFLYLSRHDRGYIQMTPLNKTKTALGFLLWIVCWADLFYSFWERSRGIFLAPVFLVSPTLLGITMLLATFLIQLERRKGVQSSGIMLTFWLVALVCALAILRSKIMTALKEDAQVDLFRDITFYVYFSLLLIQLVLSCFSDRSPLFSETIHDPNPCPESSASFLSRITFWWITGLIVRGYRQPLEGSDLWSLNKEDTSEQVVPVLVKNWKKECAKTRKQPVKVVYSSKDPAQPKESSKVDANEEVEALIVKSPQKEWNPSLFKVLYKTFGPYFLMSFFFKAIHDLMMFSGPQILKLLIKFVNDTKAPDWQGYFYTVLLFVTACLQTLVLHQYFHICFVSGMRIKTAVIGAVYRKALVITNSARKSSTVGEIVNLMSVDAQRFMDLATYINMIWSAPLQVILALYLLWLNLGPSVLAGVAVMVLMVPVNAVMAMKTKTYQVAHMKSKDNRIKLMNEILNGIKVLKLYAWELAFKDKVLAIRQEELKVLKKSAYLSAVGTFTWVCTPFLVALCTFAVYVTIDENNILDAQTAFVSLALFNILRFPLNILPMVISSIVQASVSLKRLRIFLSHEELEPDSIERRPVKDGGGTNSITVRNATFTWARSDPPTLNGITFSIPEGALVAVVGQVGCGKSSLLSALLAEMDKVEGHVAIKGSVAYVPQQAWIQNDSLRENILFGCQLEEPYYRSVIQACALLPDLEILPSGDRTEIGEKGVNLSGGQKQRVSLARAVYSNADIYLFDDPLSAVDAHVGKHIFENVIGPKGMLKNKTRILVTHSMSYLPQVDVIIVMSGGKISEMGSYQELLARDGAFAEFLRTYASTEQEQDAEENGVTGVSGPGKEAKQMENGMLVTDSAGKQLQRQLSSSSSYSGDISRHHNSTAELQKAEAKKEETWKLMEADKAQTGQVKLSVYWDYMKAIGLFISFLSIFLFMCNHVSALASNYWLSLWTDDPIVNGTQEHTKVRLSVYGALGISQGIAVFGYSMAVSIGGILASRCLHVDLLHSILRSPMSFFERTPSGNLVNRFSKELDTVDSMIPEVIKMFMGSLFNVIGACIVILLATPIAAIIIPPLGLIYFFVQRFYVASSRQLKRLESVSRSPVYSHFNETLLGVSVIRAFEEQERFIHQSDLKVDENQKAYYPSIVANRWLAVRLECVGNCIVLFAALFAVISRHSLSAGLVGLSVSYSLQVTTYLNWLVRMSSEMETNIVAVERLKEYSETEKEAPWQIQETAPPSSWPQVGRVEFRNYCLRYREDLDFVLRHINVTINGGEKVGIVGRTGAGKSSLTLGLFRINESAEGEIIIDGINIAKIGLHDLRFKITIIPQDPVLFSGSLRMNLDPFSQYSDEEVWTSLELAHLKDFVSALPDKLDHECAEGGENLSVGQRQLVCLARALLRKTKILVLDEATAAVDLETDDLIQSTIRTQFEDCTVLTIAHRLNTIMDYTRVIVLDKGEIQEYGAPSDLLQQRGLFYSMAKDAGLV

SMILES	IC50 [1] [µM]	IC50 [2] [µM]	IC50 [3] [µM]
COc1ccc(C(=O)Nc2ccccc2NC(=O)Nc2ccc(CCN3CCc4cc(OC)c(OC)cc4C3)cc2)cc1OC	6.98	10.2	–
COc1cc2c(cc1OC)CN(CCc1ccc(NC(=O)c3ccccc3N)cc1)CC2	20.7	32.4	–
COc1cc2c(cc1OC)CN(CCc1ccc(NC(=O)c3ccc(N)cc3)cc1)CC2	98.2	219	–
Nc1ccccc1C(=O)Nc1ccc(CCN2CCc3ccccc3C2)cc1	20.9	17.8	–
COc1cc2c(cc1OC)CN(CCc1ccc(NC(=O)c3cc(OC)c(OC)cc3NC(=O)c3cnc4ccccc4c3)cc1)CC2	0.85	0.68	–
COc1cc2c(cc1OC)CN(CCc1ccc(NC(=O)Nc3ccc(N)cc3)cc1)CC2	46.4	74.1	–
O=C(Nc1ccc(CCN2CCc3ccccc3C2)cc1)Nc1ccccc1[N+](=O)[O-]	8.71	6.76	–
COc1cc2c(cc1OC)CN(CCc1ccc(NC(=O)Nc3ccccc3[N+](=O)[O-])cc1)CC2	9.08	10.2	–
Nc1ccccc1NC(=O)Nc1ccc(CCN2CCc3ccccc3C2)cc1	74.1	102	–
O=C(Nc1ccc(CCN2CCc3ccccc3C2)cc1)c1ccccc1[N+](=O)[O-]	45.7	51.3	–
COc1cc2c(cc1OC)CN(CCc1ccc(NC(=O)Nc3ccccc3N)cc1)CC2	58.4	66.1	–

Next, values leading:

IC50 [1] [µM]	IC50 [2] [µM]	IC50 [3] [µM]	SMILES
4.38	6.92	–	COc1cc2c(cc1OC)CN(CCc1ccc(NC(=O)c3ccc([N+](=O)[O-])cc3)cc1)CC2
40	77.6	–	COc1cc2c(cc1OC)CN(CCc1ccc(NC(=O)c3ccccc3[N+](=O)[O-])cc1)CC2
2.61	3.89	–	COc1cc2c(cc1OC)CN(CCc1ccc(NC(=O)Nc3ccc([N+](=O)[O-])cc3)cc1)CC2
0.5	0.54	> 20	COc1cc2c(cc1OC)CN(CCc1ccc(NC(=O)c3ccccc3NC(=O)Nc3ccc([N+](=O)[O-])cc3)cc1)CC2
0.86	0.93	> 20	COc1ccc(C(=O)Nc2ccccc2C(=O)Nc2ccc(CCN3CCc4cc(OC)c(OC)cc4C3)cc2)cc1OC
0.63	0.69	> 20	COc1cc2c(cc1OC)CN(CCc1ccc(NC(=O)c3ccccc3NC(=O)c3ccc([N+](=O)[O-])cc3)cc1)CC2
